Where two headings read alike, the source gives them in different places.
Target: T1, VPAC1 (VIP1) (h) (Homo sapiens, UniProt P32241)
T1 construct: host or cells: CHO cells
T1 sequence (P32241 31-457): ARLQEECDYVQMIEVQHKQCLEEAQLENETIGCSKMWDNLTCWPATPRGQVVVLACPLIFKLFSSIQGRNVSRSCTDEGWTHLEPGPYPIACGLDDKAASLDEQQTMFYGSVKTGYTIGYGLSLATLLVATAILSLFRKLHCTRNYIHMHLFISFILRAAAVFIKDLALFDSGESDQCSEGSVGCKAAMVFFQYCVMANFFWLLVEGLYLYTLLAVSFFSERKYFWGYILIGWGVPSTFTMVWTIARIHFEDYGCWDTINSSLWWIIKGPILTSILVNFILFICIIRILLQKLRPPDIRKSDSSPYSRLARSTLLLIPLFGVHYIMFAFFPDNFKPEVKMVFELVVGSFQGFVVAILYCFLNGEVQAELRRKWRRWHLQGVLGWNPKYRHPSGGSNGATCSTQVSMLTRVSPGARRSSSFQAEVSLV
Format: binding
Settings: 1.0E-06 M

Question: What does the source list for `Cn1c(=O)n(CCCO)c(=O)c2c1nc(Oc1cccc(OC(F)(F)F)c1)n2Cc1ccc(Cl)cc1` [HC-608]?
Answer: inhibition at 1 µM (read-out: % Inhibition 1st): -9%; inhibition at 1 µM (read-out: % Inhibition 2nd): -8.4%; inhibition at 1 µM (read-out: % Inhibition Mean): -8.7%
